What follows are compounds tested against T1, breast cancer resistance protein (BCRP) (Homo sapiens, UniProt Q9UNQ0) (assay: frontal displacement affinity chromatography). Details: nmac-bcrp column.
T1 sequence (Q9UNQ0 1-655): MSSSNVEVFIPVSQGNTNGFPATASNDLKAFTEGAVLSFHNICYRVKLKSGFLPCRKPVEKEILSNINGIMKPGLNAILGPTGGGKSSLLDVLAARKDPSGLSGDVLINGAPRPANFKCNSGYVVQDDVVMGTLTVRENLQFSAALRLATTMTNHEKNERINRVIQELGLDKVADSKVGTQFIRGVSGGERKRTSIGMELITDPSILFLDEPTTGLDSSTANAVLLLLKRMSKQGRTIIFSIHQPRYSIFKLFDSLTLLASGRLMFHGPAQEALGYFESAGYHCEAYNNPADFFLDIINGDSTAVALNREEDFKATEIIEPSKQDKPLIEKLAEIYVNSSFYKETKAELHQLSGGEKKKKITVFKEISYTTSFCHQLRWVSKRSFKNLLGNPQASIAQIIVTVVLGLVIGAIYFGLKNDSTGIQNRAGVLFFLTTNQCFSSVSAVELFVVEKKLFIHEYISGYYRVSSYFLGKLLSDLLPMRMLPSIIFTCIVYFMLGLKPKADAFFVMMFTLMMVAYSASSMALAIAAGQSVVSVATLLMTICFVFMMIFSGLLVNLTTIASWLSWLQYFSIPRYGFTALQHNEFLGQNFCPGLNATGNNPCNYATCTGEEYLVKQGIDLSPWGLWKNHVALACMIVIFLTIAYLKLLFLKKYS
Assay type: binding

Row | Compound | Kd [nM]
1 | COc1ccc(-c2coc3cc(O)cc(O)c3c2=O)cc1 [Biochanin A] | 1050
2 | COc1cc([C@@H]2c3cc4c(cc3[C@@H](O[C@@H]3O[C@@H]5CO[C@@H](C)O[C@H]5[C@H](O)[C@H]3O)[C@H]3COC(=O)[C@H]23)OCO4)cc(OC)c1O [Etoposide] | 4550
3 | COc1ccc2c3c([nH]c2c1)[C@H](C=C(C)C)N1C(=O)[C@@H]2CCCN2C(=O)[C@@H]1C3 [FTC, Fumitremorgin C] | 1630

From PMC3499775 (Journal of pharmaceutical and biomedical analysis, 2012)
